How the values were obtained:
Assay type in all cases: in vitro ADME
Conditions in all cases: 100 μM KF, pooled HLMs
CYP2D6 = target: T1, CYP2D6 (Homo sapiens, UniProt P10635); assay: CYP2D6 inhibition in pooled human liver microsomes (dextromethorphan O-demethylation)
T1 construct: effects of KF on eight major CYP isoforms in human liver microsomes (HLMs); from tissue; host or cells: human liver microsomes
Procedure: (§1) All incubations were performed in triplicate, and the mean values were utilized. The typical incubation systems contained 100 mM potassium phosphate buffer (pH 7.4), NADPH generating system (1 mM NADP^+, 10 mM glucose-6-phosphate, 1 U/mL of glucose-6-phosphate dehydrogenase, and 4 mM MgCl2), the appropriate concentration of HLM, a corresponding probe substrate and KF (or positive inhibitor for different probe reactions) in a final volume of 200 μL.
(§2) The concentration of KF was 100 μM according literatures (Lang et al. [2016]; Liu et al. [2017]; Zhang et al. [2019]), and the positive inhibitor concentrations were as follows: 10 μM furafylline for CYP1A2, 1 μM ketoconazole for CYP3A4, 10 μM tranylcypromine for CYP2A6, 50 μM clomethiazole for CYP2E1, 10 μM quinidine for CYP2D6, 10 μM sulfaphenazole for CYP2C9, 50 μM tranylcypromine for CYP2C19, 5 μM montelukast for CYP2C8. Probe substrates, positive inhibitors (except for dextromethorphan and quinidine which were dissolved in water) and KF were dissolved in methanol, with a final concentration of 1% (v/v), and 1% neat methanol was added to the incubations without inhibitor. […] The instrument used in this study were Agilent 1260 series instrument with DAD and FLD detector, and the quantitative assay for the corresponding metabolites was performed as previously reported (Lang et al. [2016]; Zhang et al. 2016). […]

CYP2A6 = target: T2, CYP2A6 (Homo sapiens, UniProt P11509); assay: CYP2A6 inhibition in pooled human liver microsomes (coumarin 7-hydroxylation)
T2 construct: effects of KF on eight major CYP isoforms in human liver microsomes (HLMs); from tissue; host or cells: human liver microsomes
T2 sequence (P11509 1-494): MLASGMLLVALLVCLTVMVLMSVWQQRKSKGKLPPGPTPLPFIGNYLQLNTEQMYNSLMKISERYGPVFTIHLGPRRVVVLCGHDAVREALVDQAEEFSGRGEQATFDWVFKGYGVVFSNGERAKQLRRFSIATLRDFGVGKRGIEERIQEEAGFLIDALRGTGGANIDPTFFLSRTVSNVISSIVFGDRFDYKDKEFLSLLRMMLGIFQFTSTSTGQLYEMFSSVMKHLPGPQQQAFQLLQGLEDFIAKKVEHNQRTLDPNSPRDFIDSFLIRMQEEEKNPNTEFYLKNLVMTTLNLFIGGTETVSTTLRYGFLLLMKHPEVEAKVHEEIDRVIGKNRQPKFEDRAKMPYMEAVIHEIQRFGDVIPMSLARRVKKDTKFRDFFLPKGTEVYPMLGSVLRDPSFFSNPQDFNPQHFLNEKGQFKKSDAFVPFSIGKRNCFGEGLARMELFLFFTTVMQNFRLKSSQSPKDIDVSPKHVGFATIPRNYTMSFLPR
Procedure: as §1, §2

CYP2C19 = target: T3, CYP2C19 (Homo sapiens, UniProt P33261); assay: CYP2C19 inhibition in pooled human liver microsomes (S-mephenytoin 4-hydroxylation)
T3 construct: effects of KF on eight major CYP isoforms in human liver microsomes (HLMs); from tissue; host or cells: human liver microsomes
T3 sequence (P33261 whole entry, canonical isoform): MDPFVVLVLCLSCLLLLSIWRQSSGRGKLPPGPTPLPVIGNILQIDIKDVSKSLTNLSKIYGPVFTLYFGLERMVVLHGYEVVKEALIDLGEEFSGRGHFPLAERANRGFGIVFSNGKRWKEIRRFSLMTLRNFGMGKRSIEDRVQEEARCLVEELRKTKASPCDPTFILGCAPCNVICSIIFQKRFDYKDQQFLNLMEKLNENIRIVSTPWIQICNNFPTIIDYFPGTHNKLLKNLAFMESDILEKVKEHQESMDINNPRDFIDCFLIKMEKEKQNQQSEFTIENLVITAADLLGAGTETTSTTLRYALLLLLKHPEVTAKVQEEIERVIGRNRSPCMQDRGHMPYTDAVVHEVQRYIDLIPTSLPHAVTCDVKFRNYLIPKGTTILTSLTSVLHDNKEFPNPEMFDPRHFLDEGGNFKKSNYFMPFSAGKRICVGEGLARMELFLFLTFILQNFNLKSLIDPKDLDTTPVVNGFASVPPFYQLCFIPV
Procedure: as §1, §2

CYP2C8 = target: T4, CYP2C8 (Homo sapiens, UniProt P10632); assay: CYP2C8 inhibition in pooled human liver microsomes (paclitaxel 6α-hydroxylation)
T4 construct: effects of KF on eight major CYP isoforms in human liver microsomes (HLMs); from tissue; host or cells: human liver microsomes
T4 sequence (P10632 1-490): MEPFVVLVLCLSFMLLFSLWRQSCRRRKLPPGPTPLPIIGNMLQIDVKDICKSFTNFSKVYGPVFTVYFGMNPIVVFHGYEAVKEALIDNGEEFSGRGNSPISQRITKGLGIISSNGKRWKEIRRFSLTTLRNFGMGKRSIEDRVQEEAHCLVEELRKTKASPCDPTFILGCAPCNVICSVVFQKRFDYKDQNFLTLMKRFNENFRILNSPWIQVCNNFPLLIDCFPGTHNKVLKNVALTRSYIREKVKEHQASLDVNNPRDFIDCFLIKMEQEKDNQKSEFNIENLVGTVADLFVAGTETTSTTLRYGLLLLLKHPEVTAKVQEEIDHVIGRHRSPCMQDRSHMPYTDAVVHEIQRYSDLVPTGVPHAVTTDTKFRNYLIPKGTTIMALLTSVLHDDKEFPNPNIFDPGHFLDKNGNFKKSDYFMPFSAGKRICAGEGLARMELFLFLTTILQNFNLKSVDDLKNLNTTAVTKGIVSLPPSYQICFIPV
Procedure: as §1, §2

CYP2E1 = target: T5, CYP2E1 (Homo sapiens, UniProt P05181); assay: CYP2E1 inhibition in pooled human liver microsomes (chlorzoxazone 6-hydroxylation)
T5 construct: effects of KF on eight major CYP isoforms in human liver microsomes (HLMs); from tissue; host or cells: human liver microsomes
T5 sequence (P05181 whole entry, canonical isoform): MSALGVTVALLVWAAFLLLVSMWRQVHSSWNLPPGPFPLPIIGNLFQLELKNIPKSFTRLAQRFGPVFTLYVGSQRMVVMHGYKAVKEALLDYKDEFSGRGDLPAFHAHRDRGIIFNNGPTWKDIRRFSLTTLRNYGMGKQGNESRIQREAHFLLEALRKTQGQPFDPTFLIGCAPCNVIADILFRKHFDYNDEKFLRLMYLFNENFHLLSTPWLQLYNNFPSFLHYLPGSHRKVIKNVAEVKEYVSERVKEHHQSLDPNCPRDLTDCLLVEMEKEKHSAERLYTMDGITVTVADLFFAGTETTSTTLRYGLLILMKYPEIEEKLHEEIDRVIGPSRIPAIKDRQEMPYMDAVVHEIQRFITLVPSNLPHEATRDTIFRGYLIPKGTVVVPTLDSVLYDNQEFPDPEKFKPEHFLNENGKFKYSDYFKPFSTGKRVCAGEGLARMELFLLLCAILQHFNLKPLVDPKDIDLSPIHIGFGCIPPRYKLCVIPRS
Procedure: as §1, §2

T1 sequence (P10635 whole entry, canonical isoform): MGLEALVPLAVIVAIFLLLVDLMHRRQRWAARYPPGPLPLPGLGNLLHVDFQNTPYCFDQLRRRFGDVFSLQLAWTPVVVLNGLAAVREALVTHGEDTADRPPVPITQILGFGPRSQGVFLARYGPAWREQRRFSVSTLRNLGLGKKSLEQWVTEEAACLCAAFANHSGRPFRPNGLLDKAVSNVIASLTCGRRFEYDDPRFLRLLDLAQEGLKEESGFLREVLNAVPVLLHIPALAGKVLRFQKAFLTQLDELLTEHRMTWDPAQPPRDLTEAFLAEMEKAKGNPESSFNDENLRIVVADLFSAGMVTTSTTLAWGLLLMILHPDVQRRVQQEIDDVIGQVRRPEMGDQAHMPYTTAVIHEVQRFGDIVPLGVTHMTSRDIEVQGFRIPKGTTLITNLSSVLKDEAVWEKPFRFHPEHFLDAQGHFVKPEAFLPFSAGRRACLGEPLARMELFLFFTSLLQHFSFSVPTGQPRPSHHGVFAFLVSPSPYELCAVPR

Inhibition of CYP2D6 activity (CYP2D6): did not inhibit
Inhibition of CYP2A6 activity (CYP2A6): did not inhibit
Inhibition of CYP2C19 activity (CYP2C19): did not inhibit
Inhibition of CYP2C8 activity (CYP2C8): did not inhibit
Inhibition of CYP2E1 activity (CYP2E1): did not inhibit
SMILES: C[C@@H]1O[C@@H](Oc2cc(O)c3c(=O)c(O[C@@H]4O[C@@H](C)[C@H](O)[C@@H](O)[C@H]4O)c(-c4ccc(O)cc4)oc3c2)[C@H](O)[C@H](O)[C@H]1O [KF, Kaempferitrin]

Source: PMC6720019 (Pharmaceutical Biology, 2019)
